From patent US6896900B2, “β-L-2'-deoxy-nucleosides for the treatment of HIV infection” (Emory University, priority 1998, dated 2005)

Assays:
HIV-1 (strain LAV) = test: Inhibition of HIV-1 replication in human PBM cells (reverse transcriptase readout); type: cell-based; conditions: for EC50: Human immunodeficiency virus 1, PBMC, 144 h, HIV-1 strain LAV, day 6, read-out: Antiviral Activity EC50
Description: Antiviral compositions can be screened in vitro for inhibition of HIV by various experimental techniques. One such technique involves measuring the inhibition of viral replication in human peripheral blood mononuclear (PBM) cells. The amount of virus produced is determined by measuring the quantity of virus-coded reverse transcriptase (RT), an enzyme found in retroviruses, that is present in the cell culture medium.
Three-day-old phytohemagglutinin-stimulated PBM cells (10^6 cells/ml) from hepatitis B and HIV-1 seronegative healthy donors were infected with HIV-1 (strain LAV) at a concentration of about 100 times the 50% tissue culture infectious done (TICD 50) per ml and cultured in the presence and absence of various concentrations of antiviral compounds.
Approximately one hour after infection, the medium, with the compound to be tested (2 times the final concentration in medium) or without compound, was added to the flasks (5 ml; final volume 10 ml). AZT was used as a positive control. The cells were exposed to the virus (about 2×10^5 dpm/ml, as determined by reverse transcriptase assay ) and then placed in a CO2 incubator. HIV-1 (strain LAV) was obtained from the Centers for Disease Control, Atlanta, Ga. The methods used for culturing the PBM cells, harvesting the virus and determining the reverse transcriptase activity were those described by McDougal et al. (J. Immun. Meth. 76, 171-183, 1985) and Spira et al., (J. Clin. Meth. 25, 97-99, 1987), except that fungizone was not included in the medium (see Schinazi, et al., Antimicrob. Agents Chemother. 32, 1784-1787 (1988); Antimicrob. Agents Chemother., 34: 1061-1067 (1990)).
On day 6, the cells and supernatant were transferred to a 15 ml tube and centrifuged at about 900 g for 10 minutes. Five ml of supernatant were removed and the virus was concentrated by centrifugation at 40,000 rpm for 30 minutes (Beckman 70.1 Ti rotor). The solubilized virus pellet was processed for determination of the levels of reverse transcriptase. Results are expressed in dpm/ml of sampled supernatant. Virus from smaller volumes of supernatant (1 ml) can also be concentrated by centrifugation prior to solubilization and determination of reverse transcriptase levels.
The median effective (EC50) concentration was determined by the median effect method (Antimicrob. Agents Chemother. 30, 491-498 (1986). Briefly, the percent inhibition of virus, as determined from measurements of reverse transcriptase, is plotted versus the micromolar concentration of compound. The EC50 is the concentration of compound at which ther is a 50% inhibition of viral growth.
(§1) The anti-HIV activity of L-2′-A-5-FddC and L-3′-A-5-FddC was tested in CEM and PBM cells.

[1] = Cytotoxicity in CEM cells; type: cell-based; conditions: human
HIV = test: Anti-HIV activity in CEM cells; type: cell-based; conditions: for EC50: Human immunodeficiency virus 1, CCRF-CEM, read-out: Antiviral Activity EC50
Description: as §1

[2] = Cytotoxicity in uninfected human PBM cells (trypan blue cell count); type: cell-based; conditions: mitogen-stimulated uninfected human PBM cells, six days
Description: Mitogen stimulated uninfected human PBM cells (3.8×10^5 cells/ml) were cultured in the presence and absence of drug under similar conditions as those used for the antiviral assay described above. The cells were counted after six days using a hemacytometer and the trypan blue exclusion method, as described by Schinazi et al., Antimicrobial Agents and Chemotherapy, 22(3), 499 (1982). The IC50 is the concentration of compound which inhibits 50% of normal cell growth. The anti-HIV activity of L-2′-A-5-FddC and L-3′-A-5-FddC was tested in CEM and PBM cells.

Compound | Selectivity Index IC50/EC50 (HIV-1 (strain LAV)) | EC50 (HIV-1 (strain LAV)) | melting point | IC50 [1] | Selectivity Index IC50/EC50 (HIV) | EC50 (HIV) | IC50 at 6 days [2]
[N-]=[N+]=NC1C[C@H](CO)O[C@@H]1n1cc(F)c(N)nc1=O (stereo partly drawn) [L-2′-A-5-FddC, β-L-(2′-azido)-2′,3′-dideoxy-5-fluorocytosine] | >100 | 1 µM | 219 to 221 °C | > 100 µM | >30 | 3.9 µM | > 100 µM
[N-]=[N+]=NC1C[C@@H](n2cc(F)c(N)nc2=O)O[C@H]1CO (stereo partly drawn) [L-3′-A-5-FddC, β-L-(3′-azido)-2′,3′-dideoxy-5-fluorocytosine] | >2647 | 0.05 µM | – | > 100 µM | >344 | 0.29 µM | > 100 µM
